Test system: MV-4-11 cells
Test: Gene expression microarray analysis (Affymetrix PrimeView) and GSEA
Assay type: cell-based, human
Details: ProbeSet 11717523_x_at; LIST B

Compound: Nc1ncn([C@@H]2O[C@H](CO)[C@@H](O)[C@H]2O)c(=O)n1 [azacitidine]
- RFU, TMEM50B: 81.58 RFU

Source: publication PMC5218480 (PLoS ONE, 2017)
